In patent US8030357B2, “Use of bupropion metabolites for the treatment of inflammatory disorders” (Biocopea Limited, priority 2006, dated 2011):
Entries after “also recorded” stand apart in the source; their conditions may differ.

Legend:
TNFα = experiment: LPS Mouse Assay, serum TNFα; type: in vivo, Balb C ByJ mice; conditions: mice, i.p. or oral dosing 30 minutes before 1 mg/kg LPS i.p.; serum 2 hours after LPS, ELISA
Procedure: (§1) 7 week old Balb C ByJ mice (24-28 g) were administered, either by i.p. (5 ml/kg) or oral (10 ml/kg) administration, with vehicle or test article. 30 minutes later these animals were challenged with an intraperitoneal injection of 1 mg/kg LPS. 2 hours after LPS challenge blood samples were collected under light isoflurane anaesthesia into normal tubes by retro-orbital puncture. Samples were allowed to clot at room temperature and then spun at 6000 g for 3 min at 4° C. Serum was stored at −20° C. until use. Serum TNFα and IL-10 levels were analysed in duplicate by ELISA technique.

IL-10 = experiment: LPS Mouse Assay, serum IL-10; type: in vivo, Balb C ByJ mice; conditions: mice, i.p. or oral dosing 30 minutes before 1 mg/kg LPS i.p.; serum 2 hours after LPS, ELISA
Procedure: as §1

[1] = test system: LPS-induced model of cytokine release; experiment: LPS Mouse Assay, overall cytokine modulation; type: in vivo, Balb C ByJ mice; conditions: LPS-challenged mice, serum TNFα and IL-10
Procedure: as §1

adjuvant arthritis = experiment: Rat Adjuvant Assay; type: in vivo, Male Wistar rats; conditions: rats, oral once a day from day 11; for paw oedema / paw inflammation: doses 3, 10 and 30 mg/kg
Procedure: Male Wistar rats (180 to 200 g) were inoculated by subplantar injection of Freund's adjuvant (suspension of Mycobacterium butyricum in mineral oil) into the right paw at day 0. Sham inoculations were injected in the same way with 0.9% saline in matched Male Wistar rats. On day 2, animals were weighed. On days 3, 4, 7, 9 and 11, animals were weighed and both their right and left hind paws were measured by plethsymometry by submerging the paw up to the tibiotarsal joint. On day 11, rats with left hind paw volumes increased by 20% were selected for continuance in the study. On the same day, continuance rats were administered test article orally (10 ml/kg in distilled water) and from then on once a day until the completion of the study. Left and right hind paw volumes were measured on days 11, 14, 15, 16, 18 and 21.

[2] = test system: intraplantar carrageenan induced paw oedema; experiment: Carrageenan Paw Assay; type: in vivo, male Wistar rats; conditions: rats, oral gavage half an hour before carrageenan; paw volume AUC 1-5 hours
Procedure: Fasted (18 hour) male Wistar rats (105-130 g) were weighed and a basal mercury plethysmometer reading was taken of the right hind paw by submerging the paw in the mercury up to the tibiotarsal joint. Subsequently, vehicles, reference items and test articles were administered by oral gavage (10 ml/kg). Half an hour after treatment, 0.1 ml of 2% carrageenan in 0.9% saline was injected into the subplanatar area of the right hind paw. The right paw was measured again with the plethysmometer at 1, 2, 3, 4 and 5 hours after carrageenan administration. Paw volume effects was expressed as the area under the curve for paw volume over time. Activity (inhibition of paw volume) was expressed as the % antiinflammatory activity versus the vehicle control.

[3] = test system: dextran sulphate induced colonic inflammation; experiment: DSS Induced Colitis; type: in vivo, BDF1 male mice; conditions: mice, 3% dextran sulphate
Procedure: 8-10 week old BDF1 male mice (˜30 g) were housed in normal conditions. At the start of the study normal water was exchanged for a 3% dextran sulphate solution to induce colonic inflammation. Concurrently actarit and the positive control budesonide were administered rectally twice a day for 7 days. On day 8 the animal were sacrificed and the large intestine was removed. The lower two thirds were assessed for histological severity (scoring system; 1 mild to 4 severe). Mice were assessed for cumulative rectal bleeding scores, diarrheal scores and cumulative hemoccult measurements.

SJL mouse EAE model = experiment: Experimental Autoimmune Encephalitis; type: in vivo; conditions: SJL mice, orally 10 mg/kg once a day from the first day
Procedure: Experimental Autoimmune Encephalitis
Acclimatised SJL mice were sensitised by a subcutaneous injection proteolipid protein (PLP) in Freund's complete adjuvant (CFA) acting as an encephalitogenic inoculum. Innoculum was administered subcutaneously at a concentration of 125 μg PLP/300 μg CFA in a volume of 200 μl. 48 hours later, an intraperitoneal injection of pertussis toxin (PTX) was administered at a dose of 20 μg/kg, to increase blood-brain barrier permeability.
Compound (6) was administered from the first day of the experiment and once a day until the end, orally at a dose of 10 mg/kg. Copaxone was administered intraperitoneally at a dose of 25 mg/kg. Throughout the experiment, careful clinical examinations and body weights were taken to observe the well being of the animal.

| Compound | effect on TNF alpha secretion induced by LPS (TNFα) | effect on IL-10 secretion (IL-10) | cytokine modulatory activity [1] | protective effects against adjuvant arthritis (adjuvant arthritis) | paw oedema / paw inflammation (adjuvant arthritis) | anti-inflammatory effect against carrageenan induced paw oedema [2] | comparative effectiveness of (6) against (5) in DSS colitis [3] | effect on histological scores induced by oral dextran sulphate ([3]; lower dose) | effect on histological scores induced by oral dextran sulphate ([3]; top dose) | effect on second relapse of EAE (SJL mouse EAE model) |
| --- | --- | --- | --- | --- | --- | --- | --- | --- | --- | --- |
| C[C@@H](NC(C)(C)C)[C@H](O)c1cccc(Cl)c1 (racemic) [Compound 7, (+/−)-(threo)-2-tert-Butylamino-1-(3-chlorophenyl)propan-1-ol] | inhibiting TNF alpha at all doses administrated; also recorded: small inhibitory effect on TNF alpha at the highest dose |  |  |  |  |  |  |  |  |  |
| CC(NC(C)(C)C)C(=O)c1cccc(Cl)c1 (stereo not shown) [Compound 3, 2-tert-Butylamino-1-(3-chlorophenyl)propan-1-one, reference compound] | small effect | not present | very weak cytokine modulatory activity |  |  |  |  |  |  |  |
| (+)-(erythro)-2-tert-Butylamino-1-(3-chlorophenyl)propan-1-ol [Compound 6] | inhibited | potentiated II-10 secretion | good cytokine modulatory profiles | protective effects | inhibited paw inflammation at all doses | dose-dependant anti-inflammatory effect | marginally more effective | large ameliorating effect | marked effect | completely ameliorated the second relapse |
| (+/−)-(erythro)-2-tert-Butylamino-1-(3-chlorophenyl)propan-1-ol [Compound 8] |  |  | cytokine modulatory effects |  |  |  |  |  |  |  |
| (−)-(erythro)-2-tert-Butylamino-1-(3-chlorophenyl)propan-1-ol [Compound 5] | inhibited TNFα production | no effect on IL-10 levels | good cytokine modulatory profiles | protective effects | reduced paw oedema at the top two doses | dose-dependant anti-inflammatory effect |  |  | marked effect |  |
